Measurements: publication PMC6117091, “The C. difficile clnRAB operon initiates adaptations to the host environment in response to LL-37” (PLoS Pathogens, 2018)

System: gene expression in C. difficile 630Δerm
Assay: RNA-seq, genes differentially expressed in LL-37
Details: 2 µg/ml LL-37, BHIS

With `CC[C@H](C)[C@H](NC(=O)[C@H](CCCCN)NC(=O)[C@H](CCC(=O)O)NC(=O)[C@H](CCCCN)NC(=O)[C@H](CO)NC(=O)[C@H](CCCCN)NC(=O)[C@H](CCCNC(=N)N)NC(=O)[C@H](Cc1ccccc1)NC(=O)[C@H](Cc1ccccc1)NC(=O)[C@H](CC(=O)O)NC(=O)CNC(=O)[C@H](CC(C)C)NC(=O)[C@@H](N)CC(C)C)C(=O)NCC(=O)N[C@@H](CCCCN)C(=O)N[C@@H](CCC(=O)O)C(=O)N[C@@H](Cc1ccccc1)C(=O)N[C@@H](CCCCN)C(=O)N[C@@H](CCCNC(=N)N)C(=O)N[C@H](C(=O)N[C@H](C(=O)N[C@@H](CCC(N)=O)C(=O)N[C@@H](CCCNC(=N)N)C(=O)N[C@H](C(=O)N[C@@H](CCCCN)C(=O)N[C@@H](CC(=O)O)C(=O)N[C@@H](Cc1ccccc1)C(=O)N[C@@H](CC(C)C)C(=O)N[C@@H](CCCNC(=N)N)C(=O)N[C@@H](CC(N)=O)C(=O)N[C@@H](CC(C)C)C(=O)N[C@H](C(=O)N1CCC[C@H]1C(=O)N[C@@H](CCCNC(=N)N)C(=O)N[C@H](C(=O)N[C@@H](CCC(=O)O)C(=O)N[C@@H](CO)C(=O)O)[C@@H](C)O)C(C)C)[C@@H](C)CC)C(C)C)[C@@H](C)CC` [LL-37] the “23S_rRNA fold change in LL-37” value was 0.27, the “CD630_00470 (ispD) fold change in LL-37” value was 0.48 and the “CD630_01060 (cwlD) fold change in LL-37” value was 0.43. The “CD630_01250 fold change in LL-37” value was 0.44, the “CD630_01631 fold change in LL-37” value was 0.22 and the “CD630_01930 (groS) fold change in LL-37” value was 0.46. The “CD630_02910 fold change in LL-37” value was 3.25, the “CD630_03140 fold change in LL-37” value was 0.41 and the “CD630_03240 (cbiM) fold change in LL-37” value was 0.42. The “CD630_03250 (cbiN) fold change in LL-37” value was 0.50, the “CD630_03260 (cbiQ1) fold change in LL-37” value was 0.41 and the “CD630_03270 (cbiO) fold change in LL-37” value was 0.40. For the same molecule, the “CD630_03580 fold change in LL-37” value was 3.38, the “CD630_03830 fold change in LL-37” value was 2.58 and the “CD630_03901 fold change in LL-37” value was 0.43. For the same molecule, the “CD630_04090 fold change in LL-37” value was 0.44, the “CD630_04440 (ortB) fold change in LL-37” value was 2.09 and the “CD630_04670 fold change in LL-37” value was 3.43. For the same molecule, the “CD630_04780 (spaF) fold change in LL-37” value was 3.43, the “CD630_04800 (spaG) fold change in LL-37” value was 2.29 and the “CD630_04890 fold change in LL-37” value was 2.26. For the same molecule, the “CD630_04900 fold change in LL-37” value was 4.13, the “CD630_04960 fold change in LL-37” value was 4.13 and the “CD630_04970 fold change in LL-37” value was 3.86. The “CD630_04980 fold change in LL-37” value was 4.13, the “CD630_05000 fold change in LL-37” value was 3.61 and the “CD630_05060 fold change in LL-37” value was 3.54. For the same molecule, the “CD630_05100 fold change in LL-37” value was 3.07, the “CD630_05101 fold change in LL-37” value was 3.31 and the “CD630_05102 fold change in LL-37” value was 3.35. The “CD630_05103 fold change in LL-37” value was 3.27, the “CD630_05490 fold change in LL-37” value was 4.74 and the “CD630_05500 fold change in LL-37” value was 5.52. The “CD630_05670 fold change in LL-37” value was 0.44, the “CD630_05770 fold change in LL-37” value was 2.96 and the “CD630_05780 fold change in LL-37” value was 0.47. The “CD630_05790 fold change in LL-37” value was 0.40, the “CD630_06140 fold change in LL-37” value was 0.43 and the “CD630_06240 fold change in LL-37” value was 0.45. For the same molecule, the “CD630_07290 (gcvH) fold change in LL-37” value was 2.23, the “CD630_08450 fold change in LL-37” value was 0.40 and the “CD630_08530 (oppB) fold change in LL-37” value was 3.02. For the same molecule, the “CD630_08570 (oppF) fold change in LL-37” value was 2.88, the “CD630_09080 fold change in LL-37” value was 0.23 and the “CD630_09170 fold change in LL-37” value was 0.45. The “CD630_09260 fold change in LL-37” value was 2.36, the “CD630_09340 fold change in LL-37” value was 0.39 and the “CD630_09360 fold change in LL-37” value was 0.28. The “CD630_09950 (serA) fold change in LL-37” value was 0.23, the “CD630_09960 fold change in LL-37” value was 0.24 and the “CD630_10280 fold change in LL-37” value was 0.48. The “CD630_10540 (bcd2) fold change in LL-37” value was 2.94, the “CD630_10550 (etfB3) fold change in LL-37” value was 3.07 and the “CD630_10560 (etfA3) fold change in LL-37” value was 3.22. The “CD630_10570 (crt2) fold change in LL-37” value was 2.97, the “CD630_10580 (hbd) fold change in LL-37” value was 3.51 and the “CD630_10590 (thlA1) fold change in LL-37” value was 3.56. For the same molecule, the “CD630_10850 fold change in LL-37” value was 2.17, the “CD630_10860 fold change in LL-37” value was 2.54 and the “CD630_10980 fold change in LL-37” value was 2.17. The “CD630_11261 fold change in LL-37” value was 0.42, the “CD630_11540 fold change in LL-37” value was 0.40 and the “CD630_11710 (etfB4) fold change in LL-37” value was 0.45. For the same molecule, the “CD630_12382 fold change in LL-37” value was 5.60, the “CD630_12400 (vanZ) fold change in LL-37” value was 28.43 and the “CD630_12700 fold change in LL-37” value was 0.45. The “CD630_13450 fold change in LL-37” value was 0.46, the “CD630_13460 fold change in LL-37” value was 0.50 and the “CD630_13610 fold change in LL-37” value was 0.37. For the same molecule, the “CD630_13640 fold change in LL-37” value was 0.40, the “CD630_13720 fold change in LL-37” value was 0.48 and the “CD630_13900 fold change in LL-37” value was 2.35. The “CD630_14240 fold change in LL-37” value was 2.97, the “CD630_14890 (metN) fold change in LL-37” value was 0.32 and the “CD630_14900 (met I) fold change in LL-37” value was 0.32. For the same molecule, the “CD630_15100 fold change in LL-37” value was 2.24, the “CD630_15120 (panC) fold change in LL-37” value was 2.15 and the “CD630_15470 (hisZ) fold change in LL-37” value was 2.92. The “CD630_15490 (hisC) fold change in LL-37” value was 2.86, the “CD630_15500 (hisB) fold change in LL-37” value was 3.12 and the “CD630_15510 (hisH) fold change in LL-37” value was 3.29. For the same molecule, the “CD630_15520 (hisA) fold change in LL-37” value was 2.80, the “CD630_15540 (hisI) fold change in LL-37” value was 3.10 and the “CD630_15560 fold change in LL-37” value was 2.16. For the same molecule, the “CD630_15660 (ilvB) fold change in LL-37” value was 2.01, the “CD630_15800 (hom2) fold change in LL-37” value was 0.49 and the “CD630_16070 fold change in LL-37” value was 30.25. For the same molecule, the “CD630_16090 fold change in LL-37” value was 30.62, the “CD630_16100 fold change in LL-37” value was 64.45 and the “CD630_16110 fold change in LL-37” value was 34.77. For the same molecule, the “CD630_16120 fold change in LL-37” value was 3.18, the “CD630_16130 (cotA) fold change in LL-37” value was 2.18 and the “CD630_16170 (clnR) fold change in LL-37” value was 186.82. For the same molecule, the “CD630_16180 (clnA) fold change in LL-37” value was 202.99, the “CD630_16190 (clnB) fold change in LL-37” value was 192.16 and the “CD630_16200 fold change in LL-37” value was 2.15. For the same molecule, the “CD630_16310 (sodA) fold change in LL-37” value was 2.59, the “CD630_16590 fold change in LL-37” value was 2.69 and the “CD630_16632 fold change in LL-37” value was 0.32. The “CD630_16740 fold change in LL-37” value was 2.47, the “CD630_16990 (ribE) fold change in LL-37” value was 4.23 and the “CD630_17000 (ribD) fold change in LL-37” value was 3.65. For the same molecule, the “CD630_17021 (thiS) fold change in LL-37” value was 2.41, the “CD630_17151 fold change in LL-37” value was 2.24 and the “CD630_17170 fold change in LL-37” value was 2.07. The “CD630_17452 fold change in LL-37” value was 0.34, the “CD630_17540 fold change in LL-37” value was 0.42 and the “CD630_17880 fold change in LL-37” value was 2.48. For the same molecule, the “CD630_18020 fold change in LL-37” value was 3.05, the “CD630_18270 fold change in LL-37” value was 0.47 and the “CD630_18470 fold change in LL-37” value was 0.36. For the same molecule, the “CD630_18860 fold change in LL-37” value was 0.41, the “CD630_18870 (csfU) fold change in LL-37” value was 5.34 and the “CD630_18880 (rsiU) fold change in LL-37” value was 3.69.
